EC50 data for 26 compounds are collected here from patent publication US10562869B2, “Oxadiazole compounds” (REMYND NV, priority 2014, dated 2020).

This test relates to M17_3SYN cells. In words: Paraquat-induced cytotoxicity (LDH) in α-synuclein over-expressing M17_3SYN neuroblastoma cells. It counts as cell-based, human. The settings on record: toxicity inhibition (LDH) in M17_3SYN cells challenged with 6 mM paraquat, 2 days, read-out: SYN EC50. An excerpt:
A α-synuclein expression plasmid was constructed by subcloning the NcoI/XhoI fragment from 212T-SYN(WT) (Griffioen et al., Biochem Biophys Acta (2006) 1762(3):312-318) containing the cDNA of human wild type α-synuclein correspondingly into a standard mammalian expression vector pcDNA3.1 resulting in plasmid pcDNA3.1-SYNwt. Plasmids pcDNA3.1 and pcDNA3.1-SYNwt were transfected into human neuroblastoma cells (BE-M17; ATCC No. CRL-2267™) using lipofectamine reagent and subsequently, independent clonal cell lines with the plasmids stably integrated into the genome were selected by antibiotic resistance selection (Geneticin (G418)), resulting in cell lines M17.pcDNA3 and M17_3SYN. Overexpression of α-synuclein in the M17_3SYN cell line was confirmed by Western blot analysis.
Due to the high levels of α-synuclein, M17_3SYN cells were sensitive to paraquat, a well-known risk factor Parkinson's disease and of synuclein-dependent neuronal degeneration. Cytotoxicity of cells was measured by quantification of lactate dehydrogenase (LDH) levels. In dead cells, LDH leaked out of the cells into the medium due to a loss of plasma-membrane integrity.
[…], primary pre-cultures of M17.pcDNA3 (as possible control) and M17_3SYN cells were prepared, starting from a stock culture, at a density of 20.000-40.000 cells/cm2 in culture medium (Opti-MEM® Reduced Serum Medium with Phenol Red (Invitrogen, Cat. 31985-047) supplemented with 10% FCS, 1 mM sodium pyruvate, 1×NEAA, 500 μg/ml G418 and 0.5×antibiotic/antimycotic (ABAM)). 3 days later these primary pre-cultures were used as a starting point to make secondary pre-cultures at a density of 50.000-100.000 cells/cm^2. At the day of the experiment these secondary precultures were diluted to ˜0.5·10^6 cells/ml in detection medium (Opti-MEM® Reduced-Serum Medium without Phenol Red (Invitrogen, Cat. 11085-021) supplemented with 10% FCS, 1 mM sodium pyruvate, 1×NEAA, 500 μg/ml G418 and 0.5×ABAM) and 60 μL of this suspension was dispensed per well into a 96-well microtiter plate. After 3 hours of incubation at 37° C./5% CO2 an equal volume of detection medium containing a final concentration of 6 mM Paraquat was added and subsequently incubated for 2 days at 37° C./5% CO2. Then LDH activity was determined using the Promega Cytotox 96 Non-Radioactive cytotoxicity assay (Promega, Cat. G1780), according to the manufacturer's instructions. Cytotoxicity was defined as the ratio of LDH relative to the total LDH in the cells and supernatant.
The assay described above using the M17_3SYN cell line allowed screening compounds for their ability to decrease cytotoxicity in PQ-challenged cells. Compounds of the invention were tested for their ability to decrease toxicity at different concentrations, ranging from low non-effective concentrations to high effective concentrations. Afterwards, a dose-dependent inhibition curve was used to calculate the EC50. A compound was considered to be active in this test when it inhibited toxicity by more than 20% relative to untreated M17_3SYN cells at a concentration of 10 μM or lower.

Where [1] appears, read: Homo sapiens, Neuroblastoma cell, 48 h.

pEC50: −log10 of the molar value. Where two headings read alike, the source gives them in different places.

By pEC50 is commonly meant the EC50 on a negative log10 scale, so that one unit is a factor of ten. As for `CC(C)Oc1ccc(S(=O)(=O)N2CCN(c3nc(Cc4cccc(F)c4)no3)CC2)cc1` [Cmpd096, 3-(3-Fluorobenzyl)-5-(4-((4-isopropoxyphenyl)sulfonyl)piperazin-1-yl)-1,2,4-oxadiazole], the pEC50 is 6.54. Turning to `CC(C)(c1cccc(Cl)c1)c1noc(N2CCN(S(=O)(=O)c3ccc(OC(F)F)cc3)CC2)n1` [Cmpd154, 1-{3-[1-(3-Chloro-phenyl)-1-methyl-ethyl]-[1,2,4]oxadiazol-5-yl}-4-(4-difluoromethoxy-benzenesulfonyl)-piperazine], the pEC50 under setting [1] was 8.15. Still for that read-out and setting: the value for `CCOc1ccc(S(=O)(=O)N2CCN(c3nc(Cc4cccc(F)c4)no3)CC2)cc1` [Cmpd091, 1-(4-Ethoxy-benzenesulfonyl)-4-[3-(3-fluoro-benzyl)-[1,2,4]oxadiazol-5-yl]-piperazine] was 7.24; that for `COc1ccc(S(=O)(=O)N2CCN(c3nc(CCC(F)(F)F)no3)CC2)cc1` [Cmpd171, 5-(4-((4-Methoxyphenyl)sulfonyl)piperazin-1-yl)-3-(3,3,3-trifluoropropyl)-1,2,4-oxadiazole] was 6.61. Still for that read-out and setting: the value for `COc1ccc(S(=O)(=O)N2CCN(c3nc(Cc4ccc(F)c(F)c4)no3)CC2)cc1` [Cmpd099, 1-[3-(3,4-Difluoro-benzyl)-[1,2,4]oxadiazol-5-yl]-4-(4-methoxy-benzenesulfonyl)-piperazine] was 7.80; that for `CCOc1ccc(S(=O)(=O)N2CCN(c3nc(C(C)(C)c4cccc(Cl)c4)no3)CC2)cc1` [Cmpd153, 1-{3-[1-(3-Chloro-phenyl)-1-methyl-ethyl]-[1,2,4]oxadiazol-5-yl}-4-(4-ethoxy-benzenesulfonyl)-piperazine] was 8.30; that for `CC[C@@H](c1ccccc1)c1noc(N2CCN(S(=O)(=O)c3ccc(OC)cc3)CC2)n1` [Cmpd050, 1-(4-Methoxy-benzenesulfonyl)-4-[3-((S)-1-phenyl-propyl)-[1,2,4]oxadiazol-5-yl]-piperazine] was 7.17. With `O=S(=O)(c1ccc2c(c1)CCO2)N1CCN(c2nc(Cc3cccc(F)c3)no2)CC1` [Cmpd095, 1-(2,3-Dihydro-benzofuran-5-sulfonyl)-4-[3-(3-fluoro-benzyl)-[1,2,4]oxadiazol-5-yl]-piperazine], the pEC50 under setting [1] is 7.05. As to `O=S(=O)(c1ccc(OC(F)F)cc1)N1CCN(c2nc(CC(F)(F)F)no2)CC1` [Cmpd167, 5-(4-((4-(Difluoromethoxy)phenyl)sulfonyl)piperazin-1-yl)-3-(2,2,2-trifluoroethyl)-1,2,4-oxadiazole], the pEC50 under setting [1] was 5.00. On the same count and under the same terms, with `COc1ccc(S(=O)(=O)N2CCN(c3nc(C(C)(C)c4ccccc4)no3)CC2)cc1` [Cmpd197, 1-(4-Methoxy-benzenesulfonyl)-4-[3-(1-methyl-1-phenyl-ethyl)-[1,2,4]oxadiazol-5-yl]-piperazine] the figure was 8.70; with `CCCCc1noc(N2CCN(S(=O)(=O)c3ccc(OC)cc3)CC2)n1` [Cmpd208, 3-Butyl-5-(4-((4-methoxyphenyl)sulfonyl)piperazin-1-yl)-1,2,4-oxadiazole], 7.01. The same measure, in the same setting: with `COc1ccc(S(=O)(=O)N2CCN(c3nc(CC(F)(F)F)no3)CC2)cc1` [Cmpd165, 5-(4-((4-Methoxyphenyl)sulfonyl)piperazin-1-yl)-3-(2,2,2-trifluoroethyl)-1,2,4-oxadiazole] the figure was 7.49; with `CCCc1noc(N2CCN(S(=O)(=O)c3ccc(OC)cc3)CC2)n1` [Cmpd207, 5-(4-((4-Methoxyphenyl)sulfonyl)piperazin-1-yl)-3-propyl-1,2,4-oxadiazole], 6.39.

For the compound `CCOc1ccc(S(=O)(=O)N2CCN(c3nc(CC4CC4)no3)CC2)cc1` [Cmpd162, 3-(Cyclopropylmethyl)-5-(4-((4-ethoxyphenyl)sulfonyl)piperazin-1-yl)-1,2,4-oxadiazole], under setting [1], the pEC50 was 6.65. The same measure, in the same setting: the value for `CCOc1ccc(S(=O)(=O)N2CCN(c3nc(C(C)(C)c4ccc(F)cc4)no3)CC2)cc1` [Cmpd115, 1-(4-Ethoxy-benzenesulfonyl)-4-{3-[1-(4-fluoro-phenyl)-1-methyl-ethyl]-[1,2,4]oxadiazol-5-yl}-piperazine] was 7.27; that for `CC(C)(c1ccc(F)cc1)c1noc(N2CCN(S(=O)(=O)c3ccc(OC(F)F)cc3)CC2)n1` [Cmpd114, 1-(4-Difluoromethoxy-benzenesulfonyl)-4-{3-[1-(4-fluoro-phenyl)-1-methyl-ethyl]-[1,2,4]oxadiazol-5-yl}-piperazine] was 7.77.

As for `O=S(=O)(c1ccc(OC(F)F)cc1)N1CCN(c2nc(Cc3ccc(F)c(F)c3)no2)CC1` [Cmpd101, 1-[3-(3,4-Difluoro-benzyl)-[1,2,4]oxadiazol-5-yl]-4-(4-difluoromethoxy-benzenesulfonyl)-piperazine], under setting [1], the pEC50 is 7.30. As to `CSc1ccc(S(=O)(=O)N2CCN(c3nc(CC4CC4)no3)CC2)cc1` [Cmpd161, 3-(Cyclopropylmethyl)-5-(4-((4-(methylthio)phenyl)sulfonyl)piperazin-1-yl)-1,2,4-oxadiazole], the pEC50 under setting [1] is 7.64.

Take `O=S(=O)(c1ccc(OC(F)F)cc1)N1CCN(c2nc(Cc3cccc(Cl)c3)no2)CC1` [Cmpd074, 1-[3-(3-Chloro-benzyl)-[1,2,4]oxadiazol-5-yl]-4-(4-difluoromethoxy-benzenesulfonyl)-piperazine]: the negative logarithm of the EC50 (pEC50) under setting [1] is 8.00. Same read-out and setting: with `COc1ccc(S(=O)(=O)N2CCN(c3nc(COc4cccnc4)no3)CC2)cc1` [Cmpd204, 5-(4-((4-Methoxyphenyl)sulfonyl)piperazin-1-yl)-3-((pyridin-3-yloxy)methyl)-1,2,4-oxadiazole] the figure was 7.19; with `CC(C)(c1ccccc1)c1noc(N2CCN(S(=O)(=O)c3ccc(OC(F)F)cc3)CC2)n1` [Cmpd196, 1-(4-Difluoromethoxy-benzenesulfonyl)-4-[3-(1-methyl-1-phenyl-ethyl)-[1,2,4]oxadiazol-5-yl]-piperazine], 8.10. On to `COc1ccc(S(=O)(=O)N2CCN(c3nc(C4(c5ccc(Cl)cc5)CC4)no3)CC2)cc1` [Cmpd138, 1-{3-[1-(4-Chloro-phenyl)-cyclopropyl]-[1,2,4]oxadiazol-5-yl}-4-(4-methoxy-benzenesulfonyl)-piperazine], for which the pEC50 under setting [1] is 7.41. Same read-out and setting: with `COc1ccc(S(=O)(=O)N2CCN(c3nc(COc4cccc(Cl)c4)no3)CC2)cc1` [Cmpd201, 3-((3-Chlorophenoxy)methyl)-5-(4-((4-methoxyphenyl)sulfonyl)piperazin-1-yl)-1,2,4-oxadiazole] the figure was 7.96. Same read-out and setting: the value for `CCC(c1ccccc1)c1noc(N2CCN(S(=O)(=O)c3ccc(OC(F)F)cc3)CC2)n1` (centres unmarked) [Cmpd046, 1-(4-Difluoromethoxy-benzenesulfonyl)-4-[3-(1-phenyl-propyl)-[1,2,4]oxadiazol-5-yl]-piperazine] was 7.23; that for `CCOc1ccc(S(=O)(=O)N2CCN(c3nc(C(CC)c4ccccc4)no3)CC2)cc1` (centres unmarked) [Cmpd045, 1-(4-Ethoxy-benzenesulfonyl)-4-[3-(1-phenyl-propyl)-[1,2,4]oxadiazol-5-yl]-piperazine] was 7.74. On the same count and under the same terms, with `CC(C)Oc1ccc(S(=O)(=O)N2CCN(c3nc(Cc4cccc(F)c4)no3)CC2)cc1` [Cmpd093, 1-[3-(3-Fluoro-benzyl)-[1,2,4]oxadiazol-5-yl]-4-(4-isopropoxy-benzenesulfonyl)-piperazine] the figure was 6.49.
